Consider 1 molecule from article PMC9718554, “Discovery of a fragment hit compound targeting D-Ala:D-Ala ligase of bacterial peptidoglycan biosynthesis” (Journal of Enzyme Inhibition and Medicinal Chemistry, 2022).

Bounds are passed on as bounds.

The target in assay [1] is T1, E. coli DdlB enzyme (D-alanine:D-alanine ligase) (Escherichia coli, UniProt P07862).
T1 construct: made in house; host or cells: E. coli
Kind of assay: biochemical. The note with it: 700 μM D-Ala, 100 μM ATP; read-out: DdlB inhibition IC50.

Another assay has as its target T2, DdlB from E. coli (Escherichia coli, UniProt P07862).
T2 construct: made in house; host or cells: E. coli
Briefly: Steady-state kinetics, Ki determination against DdlB (ATP varied). The format is biochemical. Here is the method: Binding of 3 to DdlB was confirmed by an orthogonal biophysical assay, surface plasmon resonance (SPR). The protein was covalently attached to the surface of the CM5 chip (∼7700 response units), and the ligand was titrated across the surface (Figure 2(B)). […] Steady-state kinetics were performed to gain mechanistic insight into the inhibition of compound 3 (Supplementary Figure S3 and Table S6).
For compound 3, Ki values were determined against DdlB from E. coli. Ki determinations were performed under similar conditions as described for DdlB inhibition assay, where different concentration of one substrate and fixed concentration of the other were used. The concentration of ATP (50, 100, 200, 300 and 500 µM) was varied at fixed concentration of D-Ala (700 µM). The concentrations of compound 3 were 0, 25, 50, 100, 250, 500, and 1000 µM. After 20 min of incubation, […] of Biomol® green reagent was added, and absorbance was read at 650 nm after 5 min. Initial data were fitted to competitive, (v/V = [S]/{KM(1 + [I]/KI)+ [S]}), non-competitive (v/V = [S]/{(1 + [I]/KI)(KM+ [S])}), uncompetitive (v/V = [S]/{KM+ [S](1 + [I]/KI)}) inhibition models in which v is observed reaction rate, V is the maximum rate, KM is the Michaelis constant, using SigmaPlot 12.0 software. The best fit was taken as the one having the highest R^2, the lowest standard error and the narrowest 95% confidence interval in each parameter (see Supplementary Table S6).

A further assay addresses DdlB (Escherichia coli, UniProt P07862). Briefly: Surface plasmon resonance, immobilised DdlB. Conditions: steady-state affinity model, three titrations, 25 °C; read-out: apparent equilibrium dissociation constant KD. Type of assay: binding, E. coli. The protocol:
Figure 2. Fragment hit 3 targeting DdlB. (A) Dose–response inhibition of DdlB for 3. (B) SPR analysis of 3 with the immobilised DdlB. 3 was injected across DdlB in serial dilutions ranging from 78.125 to 5000 µM for 40 s at a flow rate of 30 μL/min, and dissociation was followed for 40 s. […] (C) Data were fitted to the steady-state affinity model to obtain the apparent equilibrium dissociation constant (KD). KD values are the mean ± standard deviation of three titrations. (D) ATP (blue sticks) and D-Ala-D-Ala (white sticks) binding sites of DdlB (PDB ID: 4C5C) with the co-crystallised ligands. (E) Computational docking of 3 to the ATP-binding site using extra-precision Glide (blue sticks) and QM-Polarized Ligand Docking (orange sticks) (PDB ID: 4C5C).
Binding of 3 to DdlB was confirmed by an orthogonal biophysical assay, surface plasmon resonance (SPR). […]
The SPR measurements were performed at the Infrastructural Centre for Analysis of Molecular Interactions at the Department of Biology, University of Ljubljana on a Biacore T200 (GE Healthcare) at 25 °C. […] The data were analysed with the Biacore T200 Evaluation Software and KD was determined by fitting the data to the steady state affinity model. The average KDs and standard deviations were determined from three titrations of 3.
In general terms: SPR reads the build-up and loss of mass on a sensor chip optically.

The test system of another assay is E. coli ATCC 25922. Kind of assay: MIC by broth microdilution. The format is cell-based. The protocol:
(§1) The antibacterial activities of 3 were determined according to the European Committee for […] Susceptibility Testing recommendations and Clinical Laboratory Standards Institute protocol. Compound was tested against reference strains of E. coli and Staphylococcus aureus and against two mutant E. coli strains. E. coli D22 bears a mutation in the LpxC gene that increases membrane permeability, whereas E. coli N43 is an AcrA knockout strain (knockout of the cell membrane pump). […] The most plausible reason is the low on target activity of the hit fragment, however, also the poor penetration into the bacterial cell or efflux pumps effect cannot be ruled out. Although the lack of antibacterial activity is a limitation, hit compound 3 represents a fragment-sized starting point for the development of new compounds with increased DdlB inhibitory potency as well as antibacterial activity.
(§2) Minimum inhibitory concentrations (MICs) for 3 were determined by broth microdilution in Cation-adjusted Mueller-Hinton broth (MH) with TES, TREK Diagnostic Systems Ltd. against S. aureus ATCC 29213, E. coli ATCC 25922, E. coli N43 and E. coli D22. All of the experiments were performed in duplicate in 96-well plate format according to CLSI guidelines and European Committee for Antimicrobial Susceptibility Testing recommendations. The bacterial suspension of a specific bacterial strain was diluted with MH broth to obtain a final inoculum of 5 × 10^5 CFU/mL in the assay. Compound 3 dissolved in DMSO and inoculum were mixed together and incubated for 20 h at 35 °C. After incubation, the minimal inhibitory concentration (MIC) values were determined by visual inspection as the lowest dilution of compounds showing no turbidity. The MICs were determined against S. aureus (ATCC 29213), E. coli (ATCC 25922), E. coli N43, and E. coli D22 bacterial strains. D-Cycloserine was used as a positive control.
In general terms: Broth dilution looks for growth in wells or tubes with falling amounts of substance.

The subject of a further assay is E. coli D22. Kind of assay: MIC by broth microdilution. Type of assay: cell-based. The note with it: Escherichia coli, D22, 20 h. The protocol: as §1, §2
The subject of a further assay is E. coli N43. Kind of assay: MIC by broth microdilution. The format is cell-based. Conditions: Escherichia coli, N43, 20 h. Here is the method: as §1, §2
The next assay deals with S. aureus ATCC 29213. Kind of assay: MIC by broth microdilution. The format is cell-based. The protocol: as §1, §2
The target of assay [2] is E. coli MurA enzyme (UDP-N-acetylglucosamine enolpyruvyl transferase) (Escherichia coli, UniProt P0A749). Kind of assay: MurA inhibition assay (malachite green, deselection). The note with it: read-out: MurA inhibition, RA (Residual Activity).
Sequence of E. coli MurA enzyme (UDP-N-acetylglucosamine enolpyruvyl transferase) (P0A749 whole entry): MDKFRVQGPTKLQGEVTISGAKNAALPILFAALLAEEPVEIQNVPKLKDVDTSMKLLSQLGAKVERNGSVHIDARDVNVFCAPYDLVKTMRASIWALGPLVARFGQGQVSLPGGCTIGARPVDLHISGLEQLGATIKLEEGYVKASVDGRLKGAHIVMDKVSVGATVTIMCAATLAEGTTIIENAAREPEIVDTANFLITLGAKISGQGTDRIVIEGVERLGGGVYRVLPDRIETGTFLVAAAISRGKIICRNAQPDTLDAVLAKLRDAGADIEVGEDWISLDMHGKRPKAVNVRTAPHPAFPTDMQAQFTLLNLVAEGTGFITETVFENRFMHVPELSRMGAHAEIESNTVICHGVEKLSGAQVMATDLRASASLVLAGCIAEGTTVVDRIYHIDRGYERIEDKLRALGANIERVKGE
Description: Inhibition of the enzyme was determined using an end-point malachite green assay by detecting the orthophosphate formed during the enzymatic reaction. […] The final DMSO concentration was 5%. […] A parallel experiment without the enzyme was performed to detect insoluble compounds under the assay conditions and subtracted from each measurement. All experiments were performed in duplicates. RAs were calculated with respect to blank experiments without tested compounds and with 5% DMSO.

One may read the IC50 as the concentration needed to halve the response being measured. By Ki is commonly meant a dissociation constant, usually derived from enzyme kinetics or from competition with a known ligand. The MIC is the lowest concentration that inhibits growth of the organism. Low readings indicate greater potency, high ones weaker potency. As to `Cc1cccc(-c2ccnc3c(C(=O)O)cnn23)c1` [Compound 3, 7-(m-Tolyl)pyrazolo[1,5-a]pyrimidine-3-carboxylic acid], in assay [1], the IC50 is 168 µM. Further, the inhibitory constant (Ki) was determined as 20.7 ± 4.5 µM at DdlB from E. coli (Competitive (full) model, best fit, ATP varied, D-Ala 700 µM); 20.7 ± 5.2 µM at DdlB from E. coli (Competitive (partial) model); 221 ± 21.7 µM on DdlB from E. coli (Noncompetitive (full) model). At DdlB from E. coli (with respect to ATP), the inhibition mechanism entry is “competitive inhibitor with respect to ATP”. Also, the Kd on DdlB was 3200 µM. Further, the “antibacterial activity (in words)” value in the assay with E. coli ATCC 25922 (E. coli) and in the assay on S. aureus ATCC 29213 (S. aureus) was “no antibacterial activity” each time. For the same molecule, the MIC is more than 128 µg/mL in the assay on E. coli ATCC 25922 (Escherichia coli, ATCC25922, 20 h); more than 128 µg/mL against E. coli D22; more than 128 µg/mL in the assay on E. coli N43; more than 128 µg/mL in the assay with S. aureus ATCC 29213 (Staphylococcus aureus, ATCC29213, 20 h). In assay [2], the remaining activity at 5000 µM was 64%.
